# Values quoted from earlier work in paper PMC3159814 (Bioorganic & medicinal chemistry letters, 2011).
# Tested on: GnRH receptor
substance,measurement,value
"1,4,7,10-tetraazacyclododecane-1,4,7,10-tetraacetic acid (DOTA)-Ahx-(D-Lys^6-GnRH1) [DOTA-Ahx-(D-Lys^6-GnRH1)]",GnRH receptor binding affinity,36.1 nM
